Source: patent US9920073B2, “Compositions useful for inhibiting HIV-1 infection and methods using same” (Drexel University, priority 2013, dated 2018)
Where two headings read alike, the source gives them in different places.

Legend:
Test in all cases: microbe, parasite or virus in culture
Format in all cases: cell-based
HIV-1YU-2 = tested on: HIV-1YU-2
[1] = tested on: amphotropic murine leukemia virus (AMLV); details: for IC50: specificity control
HIV-1JR-CSF = tested on: HIV-1JR-CSF
HIV-1HxBc2 = details: Human immunodeficiency virus 1, read-out: IC50 HxBc2
[2] = Human immunodeficiency virus 1, read-out: IC50 YU-2, single round infection assay
[3] = Murine leukemia virus, read-out: IC50 AMLV, Table 2 screening results
[4] = read-out: IC50 YU-2, single round infection assay
[5] = Human immunodeficiency virus 1, read-out: IC50 JR-CSF
[6] = read-out: IC50 JR-CSF, single round infection assay
[7] = read-out: IC50 AMLV, Table 2 screening results

| Structure (SMILES) | IC50 (HIV-1YU-2; [2]) | IC50 [1, 3] | also measured |
| --- | --- | --- | --- |
| O=C1CSc2ccc(C(=O)N3CCN(C(=O)c4cccs4)CC3)cc2N1 [Compound 7] | > 300 µM | > 300 µM |  |
| Cc1cnc2c(S(=O)(=O)N3CCN(C(=O)c4ccc(C)s4)CC3)cccc2c1 [Compound 35] | > 50 µM | > 50 µM |  |
| O=C(c1ccccc1)N1CCN(C(=O)c2ccc3c4c(cccc24)CC3)CC1 [Compound 11] |  | > 300 µM | IC50 (HIV-1YU-2; [4]): 15.7 µM |
| COc1cnc(-n2cnc(C)n2)c2[nH]cc(C(=O)C(=O)N3CC(CSC(=O)c4ccccc4)C3)c12 [SC16, S-((1-(2-(4-methoxy-7-(3-methyl-1H-1,2,4-triazol-1-yl)-1H-pyrrolo[2,3-c]pyridin-3-yl)-2-oxoacetyl)azetidin-3-yl)methyl) benzothioate] |  |  | IC50 (HIV-1JR-CSF; [5]): 0.1 ± 0.02 µM; IC50 (HIV-1HxBc2): 0.15 ± 0.03 µM |
| Cc1[nH]c2ccccc2c1C(=O)C(=O)N1CCC(C(=O)c2ccc(O)cc2)CC1 [Compound 40] | > 50 µM | > 50 µM |  |
| O=C(c1ccccc1)N1CCN(C(=O)c2csc(-c3ccccc3)n2)CC1 [Compound 16] | > 300 µM | > 300 µM |  |
| COc1cccc(C(=O)N2CCN(C(=O)COc3cccc4ccccc34)CC2)c1 [Compound 47] | > 50 µM | > 50 µM |  |
| COc1cnc(-n2cnc(C)n2)c2[nH]cc(C(=O)C(=O)N3CC4C=NN(c5cccc(C)n5)C4C3)c12 (stereo not drawn) [SC24, 1-(4-methoxy-7-(3-methyl-1H-1,2,4-triazol-1-yl)-1H-pyrrolo[2,3-c]pyridin-3-yl)-2-(1-(6-methylpyridin-2-yl)-3a,4,6,6a-tetrahydropyrrolo[3,4-c]pyrazol-5(1H)-yl)ethane-1,2-dione] |  |  | IC50 (HIV-1JR-CSF; [5]): 0.7 ± 0.4 µM |
| O=C(Cc1cccc2ccccc12)N1CCN(C(=O)c2ccco2)CC1 [Compound 32] | 22.8 µM | > 50 µM |  |
| O=C(c1ccccc1)N1CCN(C(=O)c2cc(-c3ccncc3)nc3ccccc23)CC1 [Compound 27] | > 50 µM | > 50 µM |  |
| O=C(C1=Cc2cc(Br)ccc2OC1)N1CCN(C(=O)c2ccccc2)CC1 [Compound 19] | > 300 µM | > 300 µM |  |
| COc1ccc(Br)cc1C=CC(=O)N1CCC(C(=O)c2ccccc2)CC1 [Compound 15] | 156 µM | 210 µM |  |
| O=C(c1ccccc1)N1CCN(S(=O)(=O)c2ccc(Cl)c(C(F)(F)F)c2)CC1 [Compound 4] | > 300 µM | > 300 µM |  |
| Cc1nc2ccc(Cl)cc2cc1C(=O)N1CCN(S(=O)(=O)c2ccccc2)CC1 [Compound 17] | 193 µM | 238 µM |  |
| O=C(c1ccccc1)N1CCN(C(=O)c2ccc(N3CCOCC3)c([N+](=O)[O-])c2)CC1 [Compound 29] | > 50 µM | > 50 µM |  |
| O=C(c1ccccc1)N1CC2CN(C(=O)c3ccc4c5c(cccc35)CC4)CC2C1 (stereo not drawn) [SC04, (5-benzoylhexahydropyrrolo[3,4-c]pyrrol-2(1H)-yl)(1,2-dihydroacenaphthylen-5-yl)methanone] | 70 ± 6 µM |  | IC50 (HIV-1JR-CSF; [6]): 100 ± 30 µM |
| O=C(COc1ncnc2sc(-c3ccccc3)cc12)N1CCN(C(=O)c2ccco2)CC1 [Compound 26] | > 50 µM | > 50 µM |  |
| Cc1nn(-c2ccccc2)c(C)c1C(=O)C(=O)N1CCN(C(=O)c2ccccc2)CC1 [Compound 36] |  |  | IC50 (HIV-1YU-2; [4]): > 50 µM; IC50 [1, 7]: > 50 µM |
| O=C(c1ccco1)N1CCN(C(O)COc2ccc(Cl)cc2[N+](=O)[O-])CC1 (stereo not drawn) [Compound 39] | > 50 µM | > 50 µM |  |
| Cc1ccc2nc(C)c(C(=O)N3CCN(C(=O)c4ccccc4)CC3)cc2c1 [Compound 9] | > 300 µM | > 300 µM |  |
| Cc1nn(C)c2nc(-c3cccs3)cc(C(=O)N3CCN(C(=O)c4ccccc4)CC3)c12 [Compound 38] | > 50 µM | > 50 µM |  |
| Cc1ccc(C(C)C)c(OCC(=O)N2CCN(C(=O)c3ccccc3)CC2)c1 [Compound 18] |  |  | IC50 (HIV-1YU-2; [4]): > 300 µM; IC50 [1, 7]: > 300 µM |
| Cc1nn(-c2ccccc2)c(C)c1C(=O)C(=O)N1CCN(C(=O)c2ccccc2)CC1 [Compound 20] |  |  | IC50 (HIV-1YU-2; [4]): > 300 µM; IC50 [1, 7]: > 300 µM |
| CCc1ccc(C(=O)N2CCN(C(=O)c3cc4cc(C)ccc4nc3C)CC2)cc1 [Compound 22] | > 300 µM | > 300 µM |  |
| O=C(COc1cccc2ccccc12)N1CCN(C(=O)c2ccccc2)CC1 [Compound 12] | 53.3 ± 3.7 µM | > 300 µM |  |
| O=C(C(=O)N1CC2C=NN(c3ccccc3)C2C1)c1c[nH]c2c(-n3ccnn3)ncc(F)c12 (stereo not drawn) [SC38, 1-(4-fluoro-7-(1H-1,2,3-triazol-1-yl)-1H-pyrrolo[2,3-c]pyridin-3-yl)-2-(1-phenyl-3a,4,6,6a-tetrahydropyrrolo[3,4-c]pyrazol-5(1H)-yl)ethane-1,2-dione] |  |  | IC50 (HIV-1HxBc2): 0.008 ± 0.003 µM |
| COc1cnc(-n2cnc(C)n2)c2[nH]cc(C(=O)C(=O)N3CC4CN(C(=O)c5ccccc5)CC4C3)c12 (stereo not drawn) [SC11, 1-(5-benzoylhexahydropyrrolo[3,4-c]pyrrol-2(1H)-yl)-2-(4-methoxy-7-(3-methyl-1H-1,2,4-triazol-1-yl)-1H-pyrrolo[2,3-c]pyridin-3-yl)ethane-1,2-dione] |  |  | IC50 (HIV-1JR-CSF; [6]): 0.0008 ± 0.0004 µM; specificity to HIV-1 (inhibition of AMLV-pseudotyped HIV-1) ([1]; single round infection assay, in words): retaining HIV-1 specificity |
| O=C(c1cnccn1)N1CCN(C(=O)c2cc3ccccc3cc2O)CC1 [Compound 24] | > 300 µM | > 300 µM |  |
